According to patent US20180353460A1, “METHODS OF TREATING UROLOGICAL DISORDERS USING SARMs” (priority 2014, published 2018):
Values joined by “and” are separate entries in the source; they are usually repeats but may differ in a detail not shown here. Equal values may be shown once.

System: prostate, seminal vesicles and levator ani muscle
Test: Androgenic and anabolic activity in castrated (ORX) male rats, daily oral gavage for fourteen days
Format: in vivo, rat
Conditions: for ED50 in levator ani / ED50 in prostate / ED50 in seminal vesicles / Emax in levator ani / Emax in prostate / Emax in seminal vesicles: ORX rats, nonlinear regression; for dose that fully maintained or restored levator ani muscle weight (100% of intact) / levator ani muscle weight / prostate weight / seminal vesicle weight: castrated (ORX) rats; for levator ani muscle weight / prostate weight / seminal vesicle weight: oral gavage 14 days
Method: Male Sprague-Dawley rats weighing approximately 200 g were purchased from Harlan Bioproducts for Science (Indianapolis, Ind.). […] The anabolic and androgenic activity of compound of Formula VIII in intact animals was tested, as well as a dose response evaluation in acutely orchidectomized (ORX) animals. Regenerative effects of the compound of Formula VIII in chronically (9 days) ORX rats was similarly evaluated.
The test article for this study was weighed and dissolved in 10% DMSO (Fisher) diluted with PEG 300 (Acros Organics, NJ) for preparation of the appropriate dosage concentrations. […] Animals were randomly assigned to one of seven groups consisting of 4 to 5 animals per group. Control groups (intact and ORX) were administered vehicle daily. Compound of Formula VIII was administered via oral gavage at doses of 0.01, 0.03, 0.1, 0.3, 0.75, and 1 mg/day to both intact and ORX groups. Where appropriate, animals were castrated on day one of the study. Treatment with compound of Formula VIII began nine days post ORX and was administered daily via oral gavage for fourteen days.
(§1) In addition, ventral prostate, seminal vesicles, and levator ani muscle were removed, individually weighed, normalized to body weight, and expressed as a percentage of intact control. Student's T-test was used to compare individual dose groups to the intact control group. Significance was defined a priori as a P-value <0.05. Ventral prostate and seminal vesicle weights were evaluated as a measure of androgenic activity, whereas levator ani muscle weight was evaluated as a measure of anabolic activity. Blood was collected from the abdominal aorta, centrifuged, and sera were frozen at −80° C. prior to determination of serum hormone levels. Serum luteinizing hormone (LH) and follicle stimulating hormone (FSH) concentrations were determined.
Male Sprague-Dawley rats weighing approximately 200 g were purchased from Harlan Bioproducts for Science (Indianapolis, Ind.). […] Anabolic and androgenic activity of compound of Formula IX in intact animals was evaluated, and the dose response in acutely orchidectomized (ORX) animals was evaluated as well. Regenerative effects of compound of Formula IX in chronically (9 days) ORX rats were also assessed.
The compound was weighed and dissolved in 10% DMSO (Fisher) diluted with PEG 300 (Acros Organics, NJ) for preparation of the appropriate dosage concentrations. […] Intact and ORX animals were randomly assigned to one of seven groups consisting of 4 to 5 animals per group. Control groups (intact and ORX) were administered vehicle daily. Compound of Formula IX was administered via oral gavage at doses of 0.01, 0.03, 0.1, 0.3, 0.75, and 1 mg/day to both intact and ORX groups.
as §1, with “Castrated animals (on day one of the study) were randomly assigned to dose groups (4-5 animals/group) of 0.01, 0.03, 0.1, 0.3, 0.75, and 1 mg/day, for dose-response evaluation. Dosing began nine days post ORX and was administered daily via oral gavage for fourteen days. […] In” for “In”, “As a measure of androgenic activity, ventral” for “Ventral”, “evaluated,” for “evaluated as a measure of androgenic activity,”, “lutenizing” for “luteinizing”
Male Sprague-Dawley rats weighing approximately 200 g were purchased from Harlan Bioproducts for Science (Indianapolis, Ind.).

SMILES	ED50 in levator ani	ED50 in prostate	levator ani muscle weight (0.01 mg/day)	prostate weight (0.01 mg/day)	seminal vesicle weight (0.01 mg/day)	levator ani muscle weight (0.03 mg/day)	prostate weight (0.03 mg/day)	seminal vesicle weight (0.03 mg/day)	levator ani muscle weight (0.1 mg/day)	prostate weight (0.1 mg/day)	seminal vesicle weight (0.1 mg/day)	levator ani muscle weight (0.3 mg/day)	prostate weight (0.3 mg/day)	seminal vesicle weight (0.3 mg/day)	levator ani muscle weight (0.75 mg/day)	prostate weight (0.75 mg/day)	seminal vesicle weight (0.75 mg/day)	levator ani muscle weight (1 mg/day)	prostate weight (1 mg/day)	seminal vesicle weight (1 mg/day)	further results
C[C@](O)(COc1ccc(C#N)cc1)C(=O)Nc1ccc(C#N)c(C(F)(F)F)c1 [Compound IX, (S)—N-(4-Cyano-3-(trifluoromethyl)phenyl)-3-(4-cyanophenoxy)-2-hydroxy-2-methylpropanamide]	0.02 ± 0.01 mg/day	0.09 ± 0.07 mg/day	59%±6%	8%±2%	12%±4%	85%±9%	20%±5%	17%±5%	112%±10%	51%±19%	35%±10%	122%±16%	56%±9%	61%±15%	127±12%	80%±28%	70%±14%	129.66±2%	74±12.5%	80%±6%	ED50 in seminal vesicles: 0.17 ± 0.05 mg/day; Emax in levator ani: 131%±2%; Emax in prostate: 83%±25%; Emax in seminal vesicles: 85%±11%; dose that fully maintained or restored levator ani muscle weight (100% of intact) (oral gavage): > 0.1 mg/day
C[C@](O)(COc1ccc(C#N)cc1)C(=O)Nc1ccc(C#N)c(Cl)c1 [VIII, (S)—N-(3-Chloro-4-cyanophenyl)-3-(4-cyanophenoxy)-2-hydroxy-2-methylpropanamide]	–	–	52%±8%	17%±6%	10%±3%	67%±9%	31%±3%	13%±4%	98%±10%	43%±15% and 43±15%	21%±6%	103%±12%	54%±17%	43%±8%	105%±12%	58%±10%	51%±9%	110%±17% and 110±17%	73%±12% and 73±12%	69%±14%	anabolic ratio muscle/prostate weight (castrated rats, 0.01 mg/day): 3.02; anabolic ratio muscle/prostate weight (castrated rats, 0.03 mg/day): 2.13; anabolic ratio muscle/prostate weight (castrated rats, 0.1 mg/day): 2.27; anabolic ratio muscle/prostate weight (castrated rats, 0.3 mg/day): 1.90; anabolic ratio muscle/prostate weight (castrated rats, 0.75 mg/day): 1.83; anabolic ratio muscle/prostate weight (castrated rats, 1 mg/day): 1.51; derived dose that would restore levator ani muscle weight to 100% (castrated rats, oral gavage): 0.1 mg/day
C[C@](O)(COc1ccc(C#N)c(F)c1)C(=O)Nc1ccc(C#N)c(C(F)(F)F)c1 [XIII, (S)—N-(4-cyano-3-(trifluoromethyl)phenyl)-3-(4-cyano-3-fluorophenoxy)-2-hydroxy-2-methylpropanamide]	0.03 ± 0.01 mg/day	0.21 ± 0.04 mg/day	71%±4%	24%±4%	15%±2%	101%±15%	37%±9%	25%±9%	125%±20%	50%±11%	67%±20%	126%±14%	88%±16%	113%±6%	151±9%	132%±16%	155%±16%	143±17%	118±12%	160%±7%	ED50 in seminal vesicles: 0.2 ± 0.04 mg/day; Emax in levator ani: 147%±10%; Emax in prostate: 147%±10%; Emax in seminal vesicles: 188%±135%; dose that fully maintained or restored levator ani muscle weight (100% of intact) (oral gavage): 0.03 mg/day
